Experimental data: US10550105B2 (Ribon Therapeutics Inc., priority 2018, dated 2020)

target: PARP7 (Homo sapiens (Human), UniProt Q7Z3E1); experiment: Enzymatic assay for inhibition of PARP7: TR-FRET displacement of biotinylated Probe A from the TIPARP active site; type: binding; conditions: Table A-1
Experimental: 20 nL of a dose response curve of each test compound was spotted in black 384-well polystyrene proxiplates (Perkin Elmer) using a Mosquito (TTP Labtech). […] Reactions were incubated at 25° C. for an additional 30 min, then read on an Envision platereader equipped with a LANCE/DELFIA top mirror (Perkin Elmer) using excitation of 320 nm and emission of 615 nm and […] with a 90 μs delay. The ratio of the 665/615 nm emission were calculated for each well to determine the amount of complex of TIPARP and Probe A in each well. […] The Hill Coefficient is normally allowed to float but may also be fixed at 1 in a 3-parameter fit. Y is the % inhibition and x is the compound concentration.

Sequence of PARP7 (Q7Z3E1 whole entry): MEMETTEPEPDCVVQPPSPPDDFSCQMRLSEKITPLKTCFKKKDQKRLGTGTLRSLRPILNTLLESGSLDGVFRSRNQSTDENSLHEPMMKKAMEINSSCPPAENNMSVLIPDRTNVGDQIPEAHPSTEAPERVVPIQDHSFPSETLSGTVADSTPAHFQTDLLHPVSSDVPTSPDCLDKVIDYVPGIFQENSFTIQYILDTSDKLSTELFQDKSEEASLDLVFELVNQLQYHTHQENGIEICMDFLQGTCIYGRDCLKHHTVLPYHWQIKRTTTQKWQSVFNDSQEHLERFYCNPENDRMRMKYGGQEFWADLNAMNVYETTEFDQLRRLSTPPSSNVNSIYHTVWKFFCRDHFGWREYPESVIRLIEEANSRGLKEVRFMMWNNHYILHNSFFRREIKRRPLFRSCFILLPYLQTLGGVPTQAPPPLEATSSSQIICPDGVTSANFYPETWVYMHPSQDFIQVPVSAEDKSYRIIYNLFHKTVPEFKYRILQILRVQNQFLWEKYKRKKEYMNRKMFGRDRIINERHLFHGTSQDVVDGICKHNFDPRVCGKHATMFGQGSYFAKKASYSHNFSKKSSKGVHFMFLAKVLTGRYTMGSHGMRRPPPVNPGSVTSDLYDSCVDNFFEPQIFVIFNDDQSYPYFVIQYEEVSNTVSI

Row | Compound | IC50
1 | N#Cc1cccnc1N1CCN(C(=O)c2cccc(OC[C@@H]3c4ccccc4CN3c3cn[nH]c(=O)c3C(F)(F)F)c2)CC1 [Example 359, (S)-2-(4-(3-((2-(6-Oxo-5-(trifluoromethyl)-1,6-dihydropyridazin-4-yl)isoindolin-1-yl)methoxy)benzoyl)piperazin-1-yl)nicotinonitrile] | < 100 nM
2 | N#Cc1cnc(N2CCN(C(=O)c3cccc(OC[C@@H]4c5ccccc5CN4c4cn[nH]c(=O)c4C(F)(F)F)c3)CC2)cn1 [Example 370, (S)-5-(4-(3-((2-(6-Oxo-5-(trifluoromethyl)-1,6-dihydropyridazin-4-yl)isoindohn-1-yl)methoxy)benzoyl)piperazin-1-yl)pyrazine-2-carbonitrile] | < 100 nM
3 | COc1cc2c(cc1F)CN(c1cn[nH]c(=O)c1C(F)(F)F)C2 [Example 234, 5-(5-Fluoro-6-methoxyisoindolin-2-yl)-4-(trifluoromethyl)pyridazin-3(2H)-one] | < 100 nM
4 | O=c1[nH]ncc(N2Cc3cccc(OCCO)c3C2)c1C1CC1 [Example 186, 4-Cyclopropyl-5-(4-(2-hydroxyethoxy)isoindolin-2-yl)pyridazin-3(2H)-one] | ≥ 1000 nM
5 | O=C(CCOC[C@@H]1CCCN1c1cn[nH]c(=O)c1C(F)(F)F)N1CCN(c2ccc(Cl)cn2)CC1 [Example 481, (S)-5-(2-((3-(4-(5-Chloropyridin-2-yl)piperazin-1-yl)-3-oxopropoxy)methyl)pyrrolidin-1-yl)-4-(trifluoromethyl)pyridazin-3(2H)-one] | < 100 nM
6 | CN(C)CCOc1ccc2c(n1)CN(c1cn[nH]c(=O)c1C(F)(F)F)C2 [Example 319, 5-(2-(2-(Dimethylamino)ethoxy)-5,7-dihydro-6H-pyrrolo[3,4-b]pyridin-6-yl)-4-(trifluoromethyl)pyridazin-3(2H)-one] | 100 to 1000 nM
7 | N#Cc1ccc(NCCC(=O)Nc2cccc(OCC3c4ccccc4CN3c3cn[nH]c(=O)c3C(F)(F)F)c2)nc1 (stereo not drawn) [Example 394, 3-((5-Cyanopyridin-2-yl)amino)-N-(3-((2-(6-oxo-5-(trifluoromethyl)-1,6-dihydropyridazin-4-yl)isoindolin-1-yl)methoxy)phenyl)propanamide] | < 100 nM
8 | N#Cc1ccc(N2CCN(C(=O)c3cncc(OC[C@@H]4c5ccccc5CN4c4cn[nH]c(=O)c4C(F)(F)F)n3)CC2)nc1 (single isomer, unassigned) [Example 72 Isomer A] | < 100 nM
9 | N#Cc1ccc(N2CCN(C(=O)c3cccc(OCC4c5ncccc5CN4c4cn[nH]c(=O)c4C(F)(F)F)c3)CC2)nc1 (stereo not drawn) [Example 397, 6-(4-(3-((6-(6-Oxo-5-(trifluoromethyl)-1,6-dihydropyridazin-4-yl)-6,7-dihydro-5H-pyrrolo[3,4-b]pyridin-7-yl)methoxy)benzoyl)piperazin-1-yl)nicotinonitrile] | < 100 nM
10 | O=C(COC[C@@H]1CCCN1c1cn[nH]c(=O)c1C(F)(F)F)N[C@H]1CC[C@H](Nc2ccccn2)CC1 (single isomer, unassigned; isomer a) [Example 80 Isomer A] | 100 to 1000 nM
11 | C[C@@H](CC(=O)N1CCN(c2ccc(C#N)cn2)CC1)OC[C@@H]1CCCN1c1cn[nH]c(=O)c1C(F)(F)F [Example 123B, 6-[4-[(3S)-3-[[(2S)-1-[6-oxo-5-(trifluoromethyl)-1,6-dihydropyridazin-4-yl]pyrrolidin-2-yl]methoxy]butanoyl]piperazin-1-yl]pyridine-3-carbonitrile] | < 100 nM
12 | O=c1[nH]ncc(N2Cc3cccc(OCc4cccnc4)c3C2)c1C(F)(F)F [Example 197, 5-(4-(Pyridin-3-ylmethoxy)isoindolin-2-yl)-4-(trifluoromethyl)pyridazin-3(2H)-one] | < 100 nM
13 | CC(=O)Nc1cccc2c1CN(c1cn[nH]c(=O)c1C(F)(F)F)C2 [Example 179, N-(2-(6-Oxo-5-(trifluoromethyl)-1,6-dihydropyridazin-4-yl)isoindolin-4-yl)acetamide] | 100 to 1000 nM
14 | CN(Cc1ccncc1)Cc1cccc2c1CN(c1cn[nH]c(=O)c1C(F)(F)F)C2 [Example 328, 5-(4-((Methyl(pyridin-4-ylmethyl)amino)methyl)isoindolin-2-yl)-4-(trifluoromethyl)pyridazin-3(2H)-one] | < 100 nM
15 | CC(=O)N1CCN(C(=O)c2cccc(OC[C@@H]3CCCN3c3cn[nH]c(=O)c3C(F)(F)F)c2)CC1 [Example 449, (S)-5-(2-((3-(4-Acetylpiperazine-1-carbonyl)phenoxy)methyl)pyrrolidin-1-yl)-4-(trifluoromethyl)pyridazin-3(2H)-one] | 100 to 1000 nM
16 | N#Cc1ccc(N2CCN(C(=O)c3cccc(OC[C@@H]4CCCN4c4cn[nH]c(=O)c4C(F)(F)F)c3)CC2=O)nc1 [Example 34, 6-[2-oxo-4-[(3-[[(2S)-1-[6-oxo-5-(trifluoromethyl)-1,6-dihydropyridazin-4-yl]pyrrolidin-2-yl]methoxy]phenyl)carbonyl]piperazin-1-yl]pyridine-3-carbonitrile] | < 100 nM
17 | O=c1[nH]ncc(N2Cc3cccnc3C2)c1Cl [Example 154, 4-Chloro-5-(5,7-dihydro-6H-pyrrolo[3,4-b]pyridin-6-yl)pyridazin-3(2H)-one] | 100 to 1000 nM
18 | N#Cc1cnc(N2CCN(C(=O)c3cncc(OCC4c5ccccc5CN4c4cn[nH]c(=O)c4C(F)(F)F)c3)CC2)nc1 (stereo not drawn) [Example 379, 2-(4-(5-((2-(6-Oxo-5-(trifluoromethyl)-1,6-dihydropyridazin-4-yl)isoindolin-1-yl)methoxy)nicotinoyl)piperazin-1-yl)pyrimidine-5-carbonitrile] | < 100 nM
19 | O=c1[nH]ncc(N2Cc3cccc(N4CCOCC4)c3C2)c1C(F)(F)F [Example 253, 5-(4-Morpholinoisoindolin-2-yl)-4-(trifluoromethyl)pyridazin-3(2H)-one] | 100 to 1000 nM
20 | N#Cc1ccc(N2CCN(C(=O)CCOCCNc3cn[nH]c(=O)c3Cl)CC2)nc1 [Example 507] | < 100 nM

Further lines, results first:

Row | IC50 | Compound
21 | < 100 nM | Cc1c(OCCOCCC(=O)N2CCN(c3ncc(C(F)(F)F)cn3)CC2)cn[nH]c1=O [Example 550, 4-Methyl-5-[2-(3-oxo-3-[4-[5-(trifluoromethyl)pyrimidin-2-yl]piperazin-1-yl]propoxy)ethoxy]-2,3-dihydropyridazin-3-one]
22 | < 100 nM | O=c1[nH]ncc(OCCOCCS(=O)(=O)N2CCN(c3ncc(C(F)(F)F)cn3)CC2)c1C(F)(F)F [Example 724, 4-(Trifluoromethyl)-5-(2-(2-((4-(5-(trifluoromethyl)pyrimidin-2-yl)piperazin-1-yl)sulfonyl)ethoxy)ethoxy)pyridazin-3(2H)-one]
23 | < 100 nM | N#Cc1ccc(N2CCN(C(=O)C[C@H]3CC[C@@H]([C@@H]4c5ccccc5CN4c4cn[nH]c(=O)c4C(F)(F)F)O3)CC2)nc1 (single isomer, unassigned) [Example 612 Isomer B]
24 | < 100 nM | O=C(CCOCCNc1cn[nH]c(=O)c1Cl)N1CCN(c2ncc(C(F)(F)F)cn2)CC1 [Example 508, 4-Chloro-5-[[2-(3-oxo-3-[4-[5-(trifluoromethyl)pyrimidin-2-yl]piperazin-1-yl]propoxy)ethyl]amino]-2,3-dihydropyridazin-3-one]
25 | < 100 nM | C[C@@H](COCCC(=O)N1CCN(c2ccc(C#N)cn2)CC1)Oc1cn[nH]c(=O)c1C(F)(F)F [Example 530A, 6-(4-[3-[(2S)-2-[[6-Oxo-5-(trifluoromethyl)-1,6-dihydropyridazin-4-yl]oxy]propoxy]propanoyl]piperazin-1-yl)pyridine-3-carbonitrile]
26 | 100 to 1000 nM | O=C(CCOC[C@H](CCO)Oc1cn[nH]c(=O)c1C(F)(F)F)N1CCN(c2ncc(Cl)cn2)CC1 [Example 705, (S)-5-((1-(3-(4-(5-Chloropyrimidin-2-yl)piperazin-1-yl)-3-oxopropoxy)-4-hydroxybutan-2-yl)oxy)-4-(trifluoromethyl)pyridazin-3(2H)-one]
27 | < 100 nM | O=C(C[C@@H]1CC[C@H](COc2cn[nH]c(=O)c2C(F)(F)F)O1)N1CCN(c2ncc(Cl)cn2)CC1 (single isomer, unassigned) [Example 565 Isomer D]
28 | < 100 nM | Cc1c(OCCOCCC(=O)N2CCN(c3ncc(Cl)cn3)CC2)cn[nH]c1=O [Example 549, 5-(2-[3-[4-(5-Chloropyrimidin-2-yl)piperazin-1-yl]-3-oxopropoxy]ethoxy)-4-methyl-2,3-dihydropyridazin-3-one]
29 | < 100 nM | CC[C@@H](COCCC(=O)N1CCN(c2ncc(Cl)cn2)CC1)Oc1cn[nH]c(=O)c1C(F)(F)F (single isomer, unassigned) [Example 591 Isomer A]
30 | < 100 nM | C[C@H](CSCCC(=O)N1CCN(c2ncc(C(F)(F)F)cn2)CC1)Oc1cn[nH]c(=O)c1C(F)(F)F [Example 621B, (R)-5-((1-((3-Oxo-3-(4-(5-(trifluoromethyl)pyrimidin-2-yl)piperazin-1-yl)propyl)thio)propan-2-yl)oxy)-4-(trifluoromethyl)pyridazin-3(2H)-one]
31 | 100 to 1000 nM | O=C(C[C@H]1CC[C@@H](COc2cn[nH]c(=O)c2Cl)O1)N1CCN(c2ncc(C(F)(F)F)cn2)CC1 [Example 575 Isomer C, 4-Chloro-5-(((2S,5R)-5-(2-oxo-2-(4-(5-(trifluoromethyl)pyrimidin-2-yl)piperazin-1-yl)ethyl)-tetrahydrofuran-2-yl)methoxy)pyridazin-3(2H)-one]
32 | ≥ 1000 nM | O=C(CCNC[C@H]1c2ccccc2CN1c1cn[nH]c(=O)c1C(F)(F)F)N1CCN(c2ncc(Cl)cn2)CC1 [Example 628, (R)-5-(1-(((3-(4-(5-Chloropyrimidin-2-yl)piperazin-1-yl)-3-oxopropyl)amino)methyl)isoindolin-2-yl)-4-(trifluoromethyl)pyridazin-3(2H)-one]
33 | < 100 nM | C[C@@H](CC(=O)N1CCN(c2ccc(C#N)cn2)CC1)OC[C@H](C)Oc1cn[nH]c(=O)c1C(F)(F)F (single isomer, unassigned) [Example 576 Isomer B]
